# Literature values, collected in patent publication US11612579B2, “Compositions comprising a fatty acid oil mixture and a surfactant, and methods and uses thereof” (PRONOVA BIOPHARMA NORGE AS, priority 2009, dated 2023).
# “And” between values parts separate entries of the source, which are not always exact repeats. Identical values can stand only once.
# Settings: commercially-available surfactants
row,HLB Value,Molecule
1,4.7,sorbitan monostearate [Span ® 60]
2,6.7,sorbitan monopalmitate [Span ® 40]
3,4.3,sorbitan monooleate [Span ® 80]
4,1.5,CCCCCCCCCCCCCCCCCC(=O)OCCOC(=O)CCCCCCCCCCCCCCCCC [Ethylene glycol distearate]
5,6.1,CCCCCCCCCCCC(=O)OCCOCCO [Diethylene glycol monolaurate]

row,Molecule,HLB Value
1,CCCCCCCCCCCCCCCCCC(=O)OCC(O)CO (centres unmarked) [Glyceryl monostearate],3.3 and 3.8
2,CCCCCCCCCCCCOS(=O)(=O)[O-].[Na+] [Sodium lauryl sulphate],40
3,CCCCCCCCCCCCCCCC[N+](C)(C)C.[Br-] [Cetrimonium bromide],23.3
